Assay type in all cases: cell-based
Assay [1] has as its target T1, EGFR exon 20 NPG Ins D770_N771 (Ba/F3 cells) (Homo sapiens, UniProt P00533, INS770NPG).
T1 construct: expressed in transfected cells; host or cells: Ba/F3 (murine pro-B cells), retroviral transduction, puromycin selection, IL3-independent pool
The experiment in a line: Inhibitor activity on EGFR-dependent cell growth (CellTiter-Glo, 72 h), Ba/F3 EGFR exon 20 NPG Ins. The conditions noted are these: read-out: BaF3 NPG IC50. The source says: Example A. Inhibitor Activity on EGFR-Dependent Cell Growth
Cell lines are generated by transducing Ba/F3 cells with retroviruses containing vectors with EGFR WT, EGFR L858R, EGFR exon 19del, EGFR L858R/C797S, EGFR exon 20 NPG Ins D770_N771, EGFR exon 20 ASV Ins V769_D770, EGFR exon 20 SVD Ins D770_N771, or EGFR exon 20 FQEA Ins A763_V764 genes and a puromycin selection marker. Transduced cells are selected with puromycin for 7 days and are then be transferred into culture media without Interleukin 3 (IL3). EGFR WT cells are maintained with supplemental EGF. Surviving cells are confirmed to express EGFR by Western blot and maintained as a pool. The IC50 date were included in Table 6 and Table 7.
1.1 Cells are harvested from flask into cell culture medium and the cell number counted.
1.2 Cells are diluted with culture medium to the desired density and 40 μL of cell suspension is added into each well of 384-well cell culture plate and the seeding density is 800 (FQEA, exon 19del), 600 (WT, NPG, L858R/C797S), or 400 (ASV, SVD, L858R) cells/well.
2 Compound Preparation and Treatment
2.1 Test compounds are dissolved to 10 mM in a DMSO stock solution. 45 μL of stock solution is transferred to a 384 polypropylene plate (pp-plate). Perform 3-fold, 10-point dilution via transferring 15 μL compound into 30 μL DMSO using a TECAN (EVO200) liquid handler.
2.2 Spin plates at room temperature at 1,000 RPM for 1 minute.
2.3 Transfer 120 nL of diluted compound from compound source plate into the cell plate.
2.4 After compound treatment for 72 hours, perform CTG detection for compound treatment plates as described in “Detection” section.
3.1 Plates are removed from incubators and equilibrated at room temperature for 15 minutes.
3.2 Thaw the CellTiter Glo reagents and allow to equilibrate to room temperature before the experiment.
3.3 Add 40 μL of CellTiter-Glo reagent into each well (at 1:1 to culture medium). Then place the plates at room temperature for 30 min followed by reading on EnVision.
4.1 Inhibition activity is calculated following the formula below:
% Inhibition=100×(LumHC−LumSample)/(LumHC−LumLC) • where HC is obtained from cells treated with 0.1% DMSO only; and LC is obtained from culture medium only.
4.2 2. Calculate the IC50 by fitting the Curve using Xlfit (v5.3.1.3), equation 201.
Y=Bottom+(Top−Bottom)/(1+10^((Log IC50−X)*HillSlope))

A further assay concerns the target T2, EGFR WT (Ba/F3 cells) (Homo sapiens, UniProt P00533).
T2 construct: expressed in transfected cells; host or cells: Ba/F3 (murine pro-B cells), retroviral transduction, puromycin selection, maintained with EGF
In words: Inhibitor activity on EGFR-dependent cell growth (CellTiter-Glo, 72 h), Ba/F3 EGFR WT. To be noted: read-out: BaF3 WT IC50. In short, it runs like this: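 This growth assay used Ba/F3 cells that depend on wild-type EGFR and are kept in EGF without IL3. Compounds were made up as 10 mM DMSO stocks and diluted 3-fold over 10 points. 120 nL went onto 600 cells/well. After 72 hours, 40 μL CellTiter-Glo was added and luminescence read on EnVision after 30 min.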

Assay [2] deals with T3, EGFR exon 20 SVD Ins D770_N771 (Ba/F3 cells) (Homo sapiens, UniProt P00533, INS770SVD).
T3 construct: expressed in transfected cells; host or cells: Ba/F3 (murine pro-B cells), retroviral transduction, puromycin selection, IL3-independent pool
The experiment in a line: Inhibitor activity on EGFR-dependent cell growth (CellTiter-Glo, 72 h), Ba/F3 EGFR exon 20 SVD Ins. To be noted: read-out: BaF3 SVD IC50. In short, it runs like this: (§1)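 IC50s derive from a sigmoidal dose–response fit of CellTiter-Glo signal. The signal was normalised between […]-treated cells and cell-free medium. Ba/F3 mutant-EGFR cells, seeded at 400–800/well depending on the line, had 72 h of exposure to a 10-point, 3-fold compound series.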
In general terms: Cellular ATP, detected with luciferase, serves as a proxy for viable cell number.

Assay [3] addresses T4, EGFR exon 20 ASV Ins V769_D770 (Ba/F3 cells) (Homo sapiens, UniProt P00533, INS769ASV).
T4 construct: expressed in transfected cells; host or cells: Ba/F3 (murine pro-B cells), retroviral transduction, puromycin selection, IL3-independent pool
The experiment in a line: Inhibitor activity on EGFR-dependent cell growth (CellTiter-Glo, 72 h), Ba/F3 EGFR exon 20 ASV Ins. The conditions noted are these: read-out: BaF3 ASV IC50. In short, it runs like this: as §1

Where only a bound is given, the exact number is not on record here.

The term IC50 denotes the point on the concentration scale where inhibition reaches its midpoint.

T2 sequence (P00533 25-1210): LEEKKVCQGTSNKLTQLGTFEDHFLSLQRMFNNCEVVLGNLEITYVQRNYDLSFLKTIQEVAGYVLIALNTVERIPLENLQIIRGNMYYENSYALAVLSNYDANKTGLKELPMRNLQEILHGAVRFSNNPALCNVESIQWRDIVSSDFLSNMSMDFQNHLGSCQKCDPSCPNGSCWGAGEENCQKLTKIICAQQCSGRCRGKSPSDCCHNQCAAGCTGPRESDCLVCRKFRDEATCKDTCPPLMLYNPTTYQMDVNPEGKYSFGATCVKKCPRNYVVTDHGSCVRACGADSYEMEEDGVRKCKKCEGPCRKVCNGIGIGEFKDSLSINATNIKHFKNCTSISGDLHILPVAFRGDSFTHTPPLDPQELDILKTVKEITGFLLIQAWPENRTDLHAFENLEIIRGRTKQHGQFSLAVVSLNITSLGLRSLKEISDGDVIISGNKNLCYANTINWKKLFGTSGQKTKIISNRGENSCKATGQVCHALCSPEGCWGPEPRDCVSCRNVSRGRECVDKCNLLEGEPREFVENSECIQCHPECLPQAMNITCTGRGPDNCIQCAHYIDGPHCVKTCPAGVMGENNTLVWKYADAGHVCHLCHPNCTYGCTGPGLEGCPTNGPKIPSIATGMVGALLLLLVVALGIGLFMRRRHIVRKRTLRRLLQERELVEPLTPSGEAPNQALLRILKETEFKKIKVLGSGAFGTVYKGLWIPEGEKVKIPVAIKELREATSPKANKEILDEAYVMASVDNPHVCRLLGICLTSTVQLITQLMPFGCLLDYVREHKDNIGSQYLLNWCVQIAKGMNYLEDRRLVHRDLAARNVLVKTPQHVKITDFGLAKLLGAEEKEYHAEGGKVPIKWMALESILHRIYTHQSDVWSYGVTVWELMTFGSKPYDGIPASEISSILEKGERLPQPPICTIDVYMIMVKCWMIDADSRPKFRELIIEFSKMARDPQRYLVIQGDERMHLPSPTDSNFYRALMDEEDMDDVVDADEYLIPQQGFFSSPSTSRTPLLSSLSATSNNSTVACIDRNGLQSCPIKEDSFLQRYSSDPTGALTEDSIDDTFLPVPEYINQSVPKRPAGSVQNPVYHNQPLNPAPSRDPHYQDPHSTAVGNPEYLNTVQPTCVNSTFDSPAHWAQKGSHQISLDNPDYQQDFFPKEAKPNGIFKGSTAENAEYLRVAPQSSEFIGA
T3 sequence (P00533 with tags, fused parts or gaps INS770SVD): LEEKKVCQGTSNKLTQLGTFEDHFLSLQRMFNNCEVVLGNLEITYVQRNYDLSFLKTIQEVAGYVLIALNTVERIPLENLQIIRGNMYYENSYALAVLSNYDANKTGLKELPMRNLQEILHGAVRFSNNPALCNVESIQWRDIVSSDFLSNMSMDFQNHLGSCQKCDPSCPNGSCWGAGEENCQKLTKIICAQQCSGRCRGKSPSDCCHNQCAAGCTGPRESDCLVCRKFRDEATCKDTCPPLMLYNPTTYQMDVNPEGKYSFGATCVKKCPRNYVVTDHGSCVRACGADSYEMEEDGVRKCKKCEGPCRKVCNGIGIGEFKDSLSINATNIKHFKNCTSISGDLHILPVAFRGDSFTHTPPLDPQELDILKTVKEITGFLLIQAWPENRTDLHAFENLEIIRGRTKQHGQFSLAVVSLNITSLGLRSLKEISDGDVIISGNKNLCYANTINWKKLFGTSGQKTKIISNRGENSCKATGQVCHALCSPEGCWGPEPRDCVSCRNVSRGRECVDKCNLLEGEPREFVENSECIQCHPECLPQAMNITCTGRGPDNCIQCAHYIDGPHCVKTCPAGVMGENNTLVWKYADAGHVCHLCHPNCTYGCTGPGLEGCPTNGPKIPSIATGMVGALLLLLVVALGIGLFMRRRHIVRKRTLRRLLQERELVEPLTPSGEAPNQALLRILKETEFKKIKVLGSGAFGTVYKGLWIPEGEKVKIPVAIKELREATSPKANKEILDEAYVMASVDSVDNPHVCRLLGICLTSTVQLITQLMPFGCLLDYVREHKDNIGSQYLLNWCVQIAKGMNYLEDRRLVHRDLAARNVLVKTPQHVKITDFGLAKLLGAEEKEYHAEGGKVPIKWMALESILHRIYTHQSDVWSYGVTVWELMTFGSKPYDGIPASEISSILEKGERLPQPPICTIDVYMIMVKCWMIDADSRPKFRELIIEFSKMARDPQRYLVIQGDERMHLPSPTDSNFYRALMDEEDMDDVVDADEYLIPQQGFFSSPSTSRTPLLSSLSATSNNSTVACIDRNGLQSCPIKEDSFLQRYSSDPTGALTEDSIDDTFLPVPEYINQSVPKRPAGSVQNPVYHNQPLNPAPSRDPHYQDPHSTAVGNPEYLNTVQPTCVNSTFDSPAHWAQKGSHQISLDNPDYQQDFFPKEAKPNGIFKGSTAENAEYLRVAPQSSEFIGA
T4 sequence (P00533 with tags, fused parts or gaps INS769ASV): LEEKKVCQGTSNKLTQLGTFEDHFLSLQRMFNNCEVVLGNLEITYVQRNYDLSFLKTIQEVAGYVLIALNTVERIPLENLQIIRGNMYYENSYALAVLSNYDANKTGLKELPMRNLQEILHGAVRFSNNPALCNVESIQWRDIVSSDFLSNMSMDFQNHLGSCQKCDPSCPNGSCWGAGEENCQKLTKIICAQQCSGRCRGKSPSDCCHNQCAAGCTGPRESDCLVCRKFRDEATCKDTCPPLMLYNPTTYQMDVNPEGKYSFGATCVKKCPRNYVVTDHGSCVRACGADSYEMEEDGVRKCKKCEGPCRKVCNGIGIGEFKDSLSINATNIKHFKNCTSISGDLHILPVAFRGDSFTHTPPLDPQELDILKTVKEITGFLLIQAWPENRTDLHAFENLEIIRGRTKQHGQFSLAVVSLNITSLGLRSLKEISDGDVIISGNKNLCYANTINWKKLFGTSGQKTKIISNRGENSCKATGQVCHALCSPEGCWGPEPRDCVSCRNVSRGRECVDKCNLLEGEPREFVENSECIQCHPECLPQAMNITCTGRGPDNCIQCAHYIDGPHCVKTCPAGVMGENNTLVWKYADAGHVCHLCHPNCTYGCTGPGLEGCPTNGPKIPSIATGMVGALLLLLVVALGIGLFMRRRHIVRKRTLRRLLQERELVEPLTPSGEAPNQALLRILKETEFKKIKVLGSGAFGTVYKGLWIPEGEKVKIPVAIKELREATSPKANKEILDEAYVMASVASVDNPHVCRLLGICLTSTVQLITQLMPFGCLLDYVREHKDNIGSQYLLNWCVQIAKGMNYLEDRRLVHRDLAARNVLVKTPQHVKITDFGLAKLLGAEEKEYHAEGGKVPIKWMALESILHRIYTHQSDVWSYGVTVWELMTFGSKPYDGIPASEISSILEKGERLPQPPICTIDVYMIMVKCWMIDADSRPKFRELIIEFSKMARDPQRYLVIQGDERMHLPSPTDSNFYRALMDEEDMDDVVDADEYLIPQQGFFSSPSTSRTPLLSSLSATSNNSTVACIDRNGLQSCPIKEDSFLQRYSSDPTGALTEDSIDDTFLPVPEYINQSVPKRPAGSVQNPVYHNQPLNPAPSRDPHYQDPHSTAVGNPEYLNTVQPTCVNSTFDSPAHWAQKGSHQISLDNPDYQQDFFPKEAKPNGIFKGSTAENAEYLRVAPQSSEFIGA
T1 sequence (P00533 with tags, fused parts or gaps INS770NPG): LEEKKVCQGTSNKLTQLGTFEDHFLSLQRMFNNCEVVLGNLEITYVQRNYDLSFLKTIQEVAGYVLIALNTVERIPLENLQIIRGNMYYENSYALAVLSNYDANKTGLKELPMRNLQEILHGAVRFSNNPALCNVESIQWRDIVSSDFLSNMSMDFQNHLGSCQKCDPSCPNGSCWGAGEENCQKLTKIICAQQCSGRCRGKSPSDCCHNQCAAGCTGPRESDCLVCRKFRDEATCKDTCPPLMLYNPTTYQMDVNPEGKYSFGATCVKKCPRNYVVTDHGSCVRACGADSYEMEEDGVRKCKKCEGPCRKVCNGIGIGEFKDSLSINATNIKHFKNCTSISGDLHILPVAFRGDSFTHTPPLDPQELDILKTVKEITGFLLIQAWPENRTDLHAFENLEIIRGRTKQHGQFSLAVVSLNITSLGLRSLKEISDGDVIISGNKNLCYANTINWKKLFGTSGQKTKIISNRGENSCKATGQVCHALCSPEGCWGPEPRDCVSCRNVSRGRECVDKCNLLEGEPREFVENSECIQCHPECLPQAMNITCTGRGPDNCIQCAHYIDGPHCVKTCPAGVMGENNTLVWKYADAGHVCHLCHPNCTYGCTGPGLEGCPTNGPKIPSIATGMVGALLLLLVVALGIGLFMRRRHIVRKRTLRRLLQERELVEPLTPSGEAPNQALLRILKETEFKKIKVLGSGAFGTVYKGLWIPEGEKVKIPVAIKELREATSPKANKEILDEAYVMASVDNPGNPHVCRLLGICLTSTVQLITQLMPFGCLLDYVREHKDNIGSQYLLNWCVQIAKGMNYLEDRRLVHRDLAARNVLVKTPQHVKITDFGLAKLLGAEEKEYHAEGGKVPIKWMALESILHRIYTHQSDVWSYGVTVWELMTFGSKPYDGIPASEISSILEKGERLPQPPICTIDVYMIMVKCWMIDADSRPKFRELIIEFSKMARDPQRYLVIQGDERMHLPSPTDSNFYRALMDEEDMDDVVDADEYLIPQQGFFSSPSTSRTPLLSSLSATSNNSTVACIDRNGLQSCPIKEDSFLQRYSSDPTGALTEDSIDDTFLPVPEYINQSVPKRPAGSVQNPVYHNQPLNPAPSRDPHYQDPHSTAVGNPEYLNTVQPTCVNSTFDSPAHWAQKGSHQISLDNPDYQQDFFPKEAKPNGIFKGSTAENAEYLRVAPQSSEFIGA

For the molecule `COc1c(F)cccc1Nc1c(-c2ccnc(C)n2)[nH]c2c1C(=O)NCC2C[C@H]1COCCO1` (single isomer, unassigned) [Compound 603], the concentration for half-maximal inhibition (IC50) in assay [1] was less than 100 nM; at EGFR WT (Ba/F3 cells) it was more than 1000 nM; in assay [2], less than 100 nM; in assay [3], less than 100 nM.

Turning to `CCn1cc(Nc2nccc(-c3[nH]c4c(c3Nc3cccc(Cl)c3OC)C(=O)NCC4)n2)nn1` [Compound 594, 3-[(3-chloro-2-methoxyphenyl)amino]-2-{2-[(1-ethyl-1,2,3-triazol-4-yl)amino]pyrimidin-4-yl}-1H,5H,6H,7H-pyrrolo[3,2-c]pyridin-4-one], the IC50 in assay [1] is less than 100 nM; at EGFR WT (Ba/F3 cells), 100 to 1000 nM; in assay [2] it was less than 100 nM; in assay [3], less than 100 nM.

For the molecule `COc1c(Cl)cccc1Nc1c(-c2ccnc(Nc3cnnn3CS(C)(=O)=O)n2)[nH]c2c1C(=O)NCC2` [compound 539, 3-[(3-chloro-2-methoxyphenyl)amino]-2-(2-{[3-(methanesulfonylmethyl)-1,2,3-triazol-4-yl]amino}pyrimidin-4-yl)-1H,5H,6H,7H-pyrrolo[3,2-c]pyridin-4-one], the IC50 in assay [1] was 100 to 1000 nM; on EGFR WT (Ba/F3 cells) it was more than 1000 nM; in assay [2], 100 to 1000 nM; in assay [3], 100 to 1000 nM.

Take `C=CC(=O)N1CCC2(CC1)CNC(=O)c1c2[nH]c(-c2ccncc2F)c1Nc1ccc(Cl)c(F)c1` [Compound 588, 3′-[(4-chloro-3-fluorophenyl)amino]-2′-(3-fluoropyridin-4-yl)-1-(prop-2-enoyl)-5′,6′-dihydro-1′H-spiro[piperidine-4,7′-pyrrolo[3,2-c]pyridin]-4′-one]: the IC50 (in assay [1]; on EGFR WT (Ba/F3 cells); in assay [2]; in assay [3]) was less than 100 nM in each case.

With `COc1c(Cl)cccc1Nc1c(-c2ccnc(-c3ccnnc3)n2)[nH]c2c1C(=O)NCC2` [compound 542, 3-[(3-chloro-2-methoxyphenyl)amino]-2-[2-(pyridazin-4-yl)pyrimidin-4-yl]-1H,5H,6H,7H-pyrrolo[3,2-c]pyridin-4-one], the IC50 in assay [1] is 100 to 1000 nM; at EGFR WT (Ba/F3 cells), more than 1000 nM; in assay [2] it was more than 1000 nM; in assay [3], more than 1000 nM.

With `C=CC(=O)NCC[C@@H]1CNC(=O)c2c1[nH]c(-c1ccnc(C)n1)c2Nc1cccc(Cl)c1OC` [compound 654], the IC50 is less than 100 nM in assay [1], 100 to 1000 nM at EGFR WT (Ba/F3 cells), less than 100 nM in assay [2] and less than 100 nM in assay [3].

`C=CC(=O)N1CCC2(CC1)CNC(=O)c1c2[nH]c(-c2ccncc2F)c1Nc1cccc(F)c1SC` [Compound 560, 3′-{[3-fluoro-2-(methylsulfanyl)phenyl]amino}-2′-(3-fluoropyridin-4-yl)-1-(prop-2-enoyl)-5′,6′-dihydro-1′H-spiro[piperidine-4,7′-pyrrolo[3,2-c]pyridin]-4′-one]: the IC50 was less than 100 nM in assay [1], 100 to 1000 nM at EGFR WT (Ba/F3 cells), less than 100 nM in assay [2] and less than 100 nM in assay [3].

In the case of `C=CC(=O)N1CCC2(CC1)CNC(=O)c1c2[nH]c(-c2ccncc2F)c1Nc1ccc(F)c(Cl)c1` [Compound 587, 3′-[(3-chloro-4-fluorophenyl)amino]-2′-(3-fluoropyridin-4-yl)-1-(prop-2-enoyl)-5′,6′-dihydro-1′H-spiro[piperidine-4,7′-pyrrolo[3,2-c]pyridin]-4′-one], the IC50 in assay [1] is less than 100 nM; on EGFR WT (Ba/F3 cells) it was 100 to 1000 nM; in assay [2], less than 100 nM; in assay [3] it was less than 100 nM.

`C=CC(=O)N1CCC2(CC1)CNC(=O)c1c2[nH]c(-c2ccncc2F)c1Nc1cccc(Cl)c1F` [Compound 586, 3′-[(3-chloro-2-fluorophenyl)amino]-2′-(3-fluoropyridin-4-yl)-1-(prop-2-enoyl)-5′,6′-dihydro-1′H-spiro[piperidine-4,7′-pyrrolo[3,2-c]pyridin]-4′-one]: the IC50 in assay [1] was less than 100 nM; on EGFR WT (Ba/F3 cells), 100 to 1000 nM; in assay [2], less than 100 nM; in assay [3] it was less than 100 nM.

On to `CC#CC(=O)N1CCC2(CC1)CNC(=O)c1c2[nH]c(-c2ccncc2F)c1Nc1cccc(F)c1OC` [Compound 609, 1-(but-2-ynoyl)-3′-[(3-fluoro-2-methoxyphenyl)amino]-2′-(3-fluoropyridin-4-yl)-5′,6′-dihydro-1′H-spiro[piperidine-4,7′-pyrrolo[3,2-c]pyridin]-4′-one], for which the IC50 in assay [1] was more than 1000 nM; on EGFR WT (Ba/F3 cells), more than 1000 nM; in assay [2] it was 100 to 1000 nM; in assay [3], 100 to 1000 nM.

With `COc1ncc2nccc(-c3[nH]c4c(c3Nc3cccc(F)c3OC)C(=O)NC(C(F)(F)F)C4)c2n1` (stereo not drawn) [Compound 595, 3-[(3-fluoro-2-methoxyphenyl)amino]-2-{2-methoxypyrido[3,2-d]pyrimidin-8-yl}-6-(trifluoromethyl)-1H,5H,6H,7H-pyrrolo[3,2-c]pyridin-4-one], the IC50 (in assay [1]; at EGFR WT (Ba/F3 cells); in assay [2]; in assay [3]) was 100 to 1000 nM in each case.

As to `COc1c(Cl)cccc1Nc1c(-c2ccncc2F)[nH]c2c1C(=O)NCC2C[C@@H]1CO[C@@H](CN(C)C)CO1` (single isomer, unassigned) [Compound 563, (7R*)-3-[(3-chloro-2-methoxyphenyl)amino]-7-{[(2R,5S)-5-[(dimethylamino)methyl]-1,4-dioxan-2-yl]methyl}-2-(3-fluoropyridin-4-yl)-1H,5H,6H,7H-pyrrolo[3,2-c]pyridin-4-one], the IC50 was 100 to 1000 nM in assay [1], more than 1000 nM at EGFR WT (Ba/F3 cells), 100 to 1000 nM in assay [2] and 100 to 1000 nM in assay [3].

For the molecule `CCn1nncc1Nc1nccc(-c2[nH]c3c(c2Nc2cccc(Cl)c2OC)C(=O)NCC3)n1` [compound 538, 3-[(3-chloro-2-methoxyphenyl)amino]-2-{2-[(3-ethyl-1,2,3-triazol-4-yl)amino]pyrimidin-4-yl}-1H,5H,6H,7H-pyrrolo[3,2-c]pyridin-4-one], the IC50 in assay [1] was less than 100 nM; at EGFR WT (Ba/F3 cells), 100 to 1000 nM; in assay [2], less than 100 nM; in assay [3] it was less than 100 nM.

With `COc1c(F)cccc1Nc1c(-c2ccnc(Nc3nnn(C)c3C)n2)[nH]c2c1C(=O)NCC2` [compound 608, 2-{2-[(1,5-dimethyl-1,2,3-triazol-4-yl)amino]pyrimidin-4-yl}-3-[(3-fluoro-2-methoxyphenyl)amino]-1H,5H,6H,7H-pyrrolo[3,2-c]pyridin-4-one], the IC50 (in assay [1]; on EGFR WT (Ba/F3 cells); in assay [2]; in assay [3]) was more than 1000 nM each time.

Consider `C=CC(=O)N1CCC2(CC1)CNC(=O)c1c2[nH]c(-c2ccncc2F)c1Nc1ccc(Cl)c(Cl)c1` [Compound 590, 3′-[(3,4-dichlorophenyl)amino]-2′-(3-fluoropyridin-4-yl)-1-(prop-2-enoyl)-5′,6′-dihydro-1′H-spiro[piperidine-4,7′-pyrrolo[3,2-c]pyridin]-4′-one], for which the IC50 in assay [1] was 100 to 1000 nM; at EGFR WT (Ba/F3 cells) it was more than 1000 nM; in assay [2] it was more than 1000 nM; in assay [3], more than 1000 nM.

These data come from patent US20240101576A1, “HETEROCYCLIC INHIBITORS OF EGFR AND/OR HER2, FOR USE IN THE TREATMENT OF CANCER” (Scorpion Therapeutics, Inc., priority 2020, published 2024).
